Source: patent US20090239845A1, “PYRAZOLE COMPOUNDS AS PROSTAGLANDIN RECEPTORS LIGANDS” (priority 2005, published 2009)
Counter-ions that a name gives are not always drawn.

Target: T1, human EP1 receptor (Homo sapiens, UniProt P34995)
T1 construct: expressed in transfected cells; host or cells: CHO-K1
T1 sequence (P34995 1-402): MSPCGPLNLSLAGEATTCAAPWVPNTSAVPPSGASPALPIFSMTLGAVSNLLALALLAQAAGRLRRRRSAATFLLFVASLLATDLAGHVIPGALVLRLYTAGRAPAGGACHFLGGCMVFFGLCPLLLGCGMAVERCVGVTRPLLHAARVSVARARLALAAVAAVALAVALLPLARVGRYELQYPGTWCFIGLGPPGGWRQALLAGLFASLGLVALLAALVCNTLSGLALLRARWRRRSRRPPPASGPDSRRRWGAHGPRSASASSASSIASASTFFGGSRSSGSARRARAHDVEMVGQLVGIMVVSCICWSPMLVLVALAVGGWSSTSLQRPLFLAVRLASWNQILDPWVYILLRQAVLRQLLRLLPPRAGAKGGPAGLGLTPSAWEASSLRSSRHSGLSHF
Test: human EP1 calcium mobilisation assay
Type: cell-based
Conditions: negative logarithm10 of the antagonist dissociation constant; CHO-K1 cells, PGE2; free bases or sodium salts; averages of a number of experiments; read-out: functional pKi value (converted)
Experimental: Briefly, the antagonist properties of compounds are assessed by their ability to inhibit the mobilisation of intracellular calcium ([Ca^2+]i) in response to activation of EP1 or EP3 receptors by the natural agonist hormone prostaglandin E2 (PGE2). Increasing concentrations of antagonist reduce the amount of calcium that a given concentration of PGE2 can mobilise. The net effect is to displace the PGE2 concentration-effect curve to higher concentrations of PGE2. The amount of calcium produced is assessed using a calcium-sensitive fluorescent dye such as Fluo-4, AM and a suitable instrument such as a Fluorimetric Imaging Plate Reader (FLIPR). Increasing amounts of [Ca^2+]i produced by receptor activation increase the amount of fluorescence produced by the dye and give rise to an increasing signal. The signal may be detected using the FLIPR instrument and the data generated may be analysed with suitable curve-fitting software.
The human EP1 or EP3 calcium mobilisation assay (hereafter referred to as ‘the calcium assay’) utilises Chinese hamster ovary-K1 (CHO-K1) cells into which a stable (pCIN; BioTechniques 20 (1996): 102-110) vector containing either EP1 or EP3 cDNA has previously been transfected. Cells are cultured in suitable flasks containing culture medium such as DMEM:F-12 supplemented with 10% v/v foetal calf serum, 2 mM L-glutamine, 0.25 mg/ml geneticin, 100 μM flurbiprofen and 10 μg/ml puromycin.
For assay, cells are harvested using a proprietary reagent that dislodges cells such as Versene. Cells are re-suspended in a suitable quantity of fresh culture media for introduction into a 384-well plate. Following incubation for 24 hours at 37° C. the culture media is replaced with a medium containing Fluo-4 and the detergent pluronic acid, and a further incubation takes place. Concentrations of compounds are then added to the plate in order to construct concentration-effect curves. This may be performed on the FLIPR in order to assess the agonist properties of the compounds. Concentrations of PGE2 are then added to the plate in order to assess the antagonist properties of the compounds.
The data so generated may be analysed by means of a computerised curve-fitting routine. The concentration of compound that elicits a half-maximal inhibition of the calcium mobilisation induced by PGE2 (plC50) may then be estimated.

**Q.** `Cc1cc(-c2nc3ccccc3[nH]2)nn1Cc1cc(Cl)ccc1OCc1ccccc1` [Example 385, 2-[1-({5-Chloro-2-[(phenylmethyl)oxy]phenyl}methyl)-5-methyl-1H-pyrazol-3-yl]-1H-benzimidazole] was tested. Which Ki did it give?
**A.** Its Ki is > 1000 nM.

**Q.** For `Cc1cc(NC(=O)c2ccc(CNCC(C)C)c(F)c2)nn1Cc1cc(Cl)ccc1OCC(C)C` [Example 438, N-[1-({5-chloro-2-[(2-methylpropyl)oxy]phenyl}methyl)-5-methyl-1H-pyrazol-3-yl]-3-fluoro-4-{[(2-methylpropyl)amino]methyl}benzamide hydrochloride], which Ki is on record?
**A.** The Ki was > 1000 nM.

**Q.** How did the Ki turn out when `CCN(CC)Cc1ccc(C(=O)Nc2cc(C)n(Cc3cc(Cl)ccc3OCC(C)C)n2)cc1F` [Example 435, N-[1-({5-chloro-2-[(2-methylpropyl)oxy]phenyl}methyl)-5-methyl-1H-pyrazol-3-yl]-4-[(diethylamino)methyl]-3-fluorobenzamide hydrochloride] was run?
**A.** Its Ki is > 1000 nM.

**Q.** For `Cc1cc(OC(=O)NCc2ccc(CNC(=O)OC(C)(C)C)cc2)nn1Cc1cc(Cl)ccc1OCc1ccccc1` [Example 59, 1-({5-Chloro-2-[(phenylmethyl)oxy]phenyl}methyl)-5-methyl-1H-pyrazol-3-yl 1,1-dimethylethyl (benzene-1,4-dildimethanediyl)biscarbamate], which Ki is on record?
**A.** The Ki was > 1000 nM.

**Q.** Which Ki does the source give for `Cc1cc(NC(=O)c2ccc3c(c2)CCNCC3)nn1Cc1cc(Cl)ccc1OCC(C)C` [Example 98, N-[1-({5-Chloro-2-[(2-methylpropyl)oxy]phenyl}methyl)-5-methyl-1H-pyrazol-3-yl]-2,3,4,5-tetrahydro-1H-3-benzazepine-7-carboxamide hydrochloride] here?
**A.** Its Ki is > 1000 nM.

**Q.** How did the Ki turn out when `Cc1cc(OC(=O)NCc2cccc(NC(=O)OC(C)(C)C)c2)nn1Cc1cc(Cl)ccc1OCc1ccccc1` [Example 60, 1-({5-Chloro-2-[(phenylmethyl)oxy]phenyl}methyl)-5-methyl-1H-pyrazol-3-yl {[3-({[(1,1-dimethylethyl)oxy]carbonyl}amino)phenyl]methyl}carbamate] was run?
**A.** The Ki was > 1000 nM.

**Q.** `Cc1cc(NC(=O)Cc2ccccc2)nn1Cc1cc(Cl)ccc1OCc1ccc(F)c(F)c1F` [Example 123, N-{1-[(5-Chloro-2-{[(2,3,4-trifluorophenyl)methyl]oxy}phenyl)methyl]-5-methyl-1H-pyrazol-3-yl}-2-phenylacetamide] was tested. Which Ki did it give?
**A.** Its Ki is > 1000 nM.

**Q.** For `Cc1cc(C(=O)NCc2ccccn2)nn1Cc1cc(Cl)ccc1OCc1ccc(F)c(F)c1F` [Example 339, 1-[(5-Chloro-2-{[(2,3,4-trifluoro-phenyl)methyl]oxy}phe-nyl)methyl]-5-methyl-N-(2-pyridinylmethyl)-1H-pyrazole-3-carboxamide], which Ki is on record?
**A.** Its Ki is > 1000 nM.

**Q.** Which Ki does the source give for `Cc1cc(NC(=O)Cc2ccccc2)nn1Cc1cc(Cl)ccc1OCc1ccccc1Cl` [Example 129, N-{1-[(5-Chloro-2-{[(2-chlorophenyl)methyl]oxy}phenyl)methyl]-5-methyl-1H-pyrazol-3-yl}-2-phenylacetamide] here?
**A.** The Ki was > 1000 nM.

**Q.** With `Cc1cc(C(=O)Nc2ccccn2)nn1Cc1cc(Cl)ccc1OCc1ccccc1` [Example 297, 1-({5-Chloro-2-[(phenylmethyl)oxy]phenyl}methyl)-5-methyl-N-2-pyridinyl-1H-pyrazole-3-carboxamide] as the compound, how does the Ki read?
**A.** Its Ki is > 1000 nM.

**Q.** How did the Ki turn out when `Cc1cc(NC(=O)Cc2ccncc2)nn1Cc1cc(Cl)ccc1OCc1ccccc1` [Example 149, N-[1-({5-Chloro-2-[(phenylmethyl)oxy]phenyl}methyl)-5-methyl-1H-pyrazol-3-yl]-2-(4-pyridinyl)-acetamide] was run?
**A.** Its Ki is > 1000 nM.

**Q.** With `Cc1cc(-c2nc3nccnc3[nH]2)nn1Cc1cc(Cl)ccc1OCc1ccccc1` [Example 368, 2-[1-({5-Chloro-2-[(phenylmethyl)oxy]phenyl}methyl)-5-methyl-1H-pyrazol-3-yl]-1H-imidazo[4,5-b]pyrazine hydrochloride] as the compound, how does the Ki read?
**A.** Its Ki is > 1000 nM.

**Q.** How did the Ki turn out when `Cc1cc(-c2cnc(N3CCOCC3)[nH]2)nn1Cc1cc(Cl)ccc1OCc1ccccc1` [Example 485, 4-{4-[1-({5-Chloro-2-[(phenylmethyl)oxy]phenyl}methyl)-5-methyl-1H-pyrazol-3-yl]-1H-imidazol-2-yl}morpholine dihydrochloride] was run?
**A.** The Ki was > 1000 nM.

**Q.** Which Ki does the source give for `Cc1cc(-c2nc3nccnc3[nH]2)nn1Cc1cc(Cl)ccc1OCC(C)C` [Example 371, 2-[1-({5-Chloro-2-[(2-methylpropyl)oxy]phenyl}methyl)-5-methyl-1H-pyrazol-3-yl]-1H-imidazo[4,5-b]pyrazine hydrochloride] here?
**A.** The Ki was > 1000 nM.

**Q.** With `Cc1cc(C(=O)NCc2ccccn2)nn1Cc1cc(Cl)ccc1OCc1cc(F)c(F)cc1F` [Example 338, 1-[(5-Chloro-2-{[(2,4,5-trifluorophenyl)methyl]oxy}phe-nyl)methyl]-5-methyl-N-(2-pyridinylmethyl)-1H-pyrazole-3-carboxamide] as the compound, how does the Ki read?
**A.** The Ki was > 1000 nM.

**Q.** `Cc1cc(OC(=O)NCc2ccc(NC(=O)OC(C)(C)C)cc2)nn1Cc1cc(Cl)ccc1OCc1ccccc1` [Example 56, 1-({5-Chloro-2-[(phenylmethyl)oxy]phenyl}methyl)-5-methyl-1H-pyrazol-3-yl {[4-({[(1,1-dimethylethyl)oxy]carbonyl}amino)phenyl]methyl}carbamate] was tested. Which Ki did it give?
**A.** The Ki was > 1000 nM.

**Q.** Which Ki does the source give for `Cc1cc(N2CCN(CC3CCCCC3)CC2=O)nn1Cc1cc(Cl)ccc1OCc1ccccc1` [Example 249, 1-[1-({5-Chloro-2-[(phenylmethyl)oxy]phenyl}methyl)-5-methyl-1H-pyrazol-3-yl]-4-(cyclohexylmethyl)-2-piperazinone hydrochloride] here?
**A.** Its Ki is > 1000 nM.

**Q.** With `Cc1cc(OC(=O)NC2CCCCC2)nn1Cc1cc(Cl)ccc1OCC(C)C` [Example 51, 1-({5-Chloro-2-[(2-methylpropyl)oxy]phenyl}methyl)-5-methyl-1H-pyrazol-3-yl cyclohexylcarbamate] as the compound, how does the Ki read?
**A.** The Ki was > 1000 nM.

**Q.** For `Cc1cc(NC(=O)Cc2ccccc2)nn1Cc1cc(Cl)ccc1OCc1ccc(F)cc1Cl` [Example 124, N-{1-[(5-Chloro-2-{[(2-chloro-4-fluorophenyl)methyl]oxy}phenyl)methyl]-5-methyl-1H-pyrazol-3-yl}-2-phenylacetamide], which Ki is on record?
**A.** The Ki was > 1000 nM.

**Q.** With `CNC(=O)c1cc(C)n(Cc2cc(Cl)ccc2OCc2ccccc2)n1` [Example 296, 1-({5-Chloro-2-[(phenylmethyl)oxy]phenyl}methyl)-N,5-dimethyl-1H-pyrazole-3-carboxamide] as the compound, how does the Ki read?
**A.** The Ki was > 1000 nM.

**Q.** Which Ki does the source give for `Cc1cc(N2CCN(Cc3ccccc3)CC2)nn1Cc1cc(Cl)ccc1OCc1ccccc1` [Example 288, 4-[1-({5-Chloro-2-[(phenylmethyl)oxy]phenyl}methyl)-5-methyl-1H-pyrazol-3-yl]-1-(phenylmethyl)piperazin-1-ium chloride] here?
**A.** The Ki was > 1000 nM.

**Q.** With `Cc1cc(OC(=O)NCc2cccc(CNC(=O)OC(C)(C)C)c2)nn1Cc1cc(Cl)ccc1OCc1ccccc1` [Example 61, 1-({5-Chloro-2-[(phenylmethyl)oxy]phenyl}methyl)-5-methyl-1H-pyrazol-3-yl 1,1-dimethylethyl (benzene-1,3-diyldimethanediyl)biscarbamate] as the compound, how does the Ki read?
**A.** Its Ki is > 1000 nM.

**Q.** With `Cc1cc(NC(=O)c2c(F)cc(CNC(C)C)cc2F)nn1Cc1cc(Cl)ccc1OCC(C)C` [Example 440, N-[1-({5-chloro-2-[(2-methylpropyl)oxy]phenyl}methyl)-5-methyl-1H-pyrazol-3-yl]-2,6-difluoro-4-{[(1-methylethyl)amino]methyl}benzamide hydrochloride] as the compound, how does the Ki read?
**A.** The Ki was > 1000 nM.

**Q.** For `Cc1cc(C(=O)Nc2ccc(C#N)cc2)nn1Cc1cc(Cl)ccc1OCc1ccccc1` [Example 306, 1-({5-Chloro-2-[(phenylmethyl)oxy]phenyl}methyl)-N-(4-cyanophenyl)-5-methyl-1H-pyrazole-3-carboxamide], which Ki is on record?
**A.** The Ki was > 1000 nM.

**Q.** For `Cc1cc(-c2cnc(-n3cccn3)[nH]2)nn1Cc1cc(Cl)ccc1OCc1ccccc1` [Example 481, 1-({5-Chloro-2-[(phenylmethyl)oxy]phenyl}methyl)-5-methyl-3-[2-(1H-pyrazol-1-yl)-1H-imidazol-4-yl]-1H-pyrazole hydrochloride], which Ki is on record?
**A.** The Ki was > 1000 nM.

**Q.** Which Ki does the source give for `Cc1cc(NC(=O)Cc2ccccc2)nn1Cc1cc(Cl)ccc1OCc1ccc(F)cc1` [Example 121, N-{1-[(5-Chloro-2-{[(4-fluorophenyl)methyl]oxy}phenyl)methyl]-5-methyl-1H-pyrazol-3-yl}-2-phenylacetamide] here?
**A.** The Ki was > 1000 nM.
